Results published in patent publication US7838672B2, “Use of fused ring-1,2,4-benzotriazine derivatives as herbicides or plant growth regulators for the control of undesired plants or vegetation, compounds and compositions thereof, and processes for their preparation” (Bayer CropScience GmbH, priority 2003, dated 2010).

Legend:
[1] = system: Galium aparine, Abutilon theophrasti, Alopecurus myosuroides, Avena fatua, Ipomoea purpurea, Echinchloa crus-galli, Solanum nigrum and Cyperus iria; assay: Pre-emergence effect on weeds (greenhouse pot test, applied to the covering soil); type: in vivo; settings: application rate of 3 kg or less of active ingredient per hectare, assessed three to four weeks after application vs untreated control
Protocol: Seeds of monocotyledonous and dicotyledonous weeds and/or crops were placed in sandy loam in wood-fibre-pots and covered with soil. The compounds formulated as wettable powders or emulsifiable concentrates were dissolved and diluted with water containing adjuvant and then applied to the surface of the covering soil at different dose rates at an application volume of 600 or 800 litres water per ha. After the treatment, the pots were placed in the greenhouse and kept under good growth conditions for the plants. The herbicidal effect was assessed visually as a percentage figure in comparison with the untreated control three to four weeks after application. 100% Efficacy refers to the complete damage of the assessed plants, 0% efficacy refers to the appearance of the untreated control.

[2] = system: Galium aparine, Abutilon theophrasti, Alopecurus myosuroides, Avena fatua, Ipomoea purpurea, Echinchloa crus-galli, Solanum nigrum and Cyperus iria; assay: Post-emergence effect on weeds (greenhouse pot test, applied over the top of plants at one-leaf-stage); type: in vivo; settings: application rate of 3 kg or less of active ingredient per hectare, treated at one-leaf-stage, assessed three to four weeks after application vs untreated control
Protocol: Seeds of monocotyledonous and dicotyledonous weeds and/or crops were placed in sandy loam in wood-fibre-pots covered with soil and grown under good greenhouse conditions. The plants were treated at the one-leaf-stage two to three weeks after sowing. The compounds, formulated as wettable powders or emulsifiable concentrates were dissolved and diluted with water containing adjuvant and then applied over the top of the plants at different dose rates at an application volume of 600 or 800 litres water per ha. After the treatment, the pots were placed in the greenhouse and kept under good growth conditions for the plants. The herbicidal effect was assessed visually as a percentage figure in comparison with the untreated control three to four weeks after application

Structure (SMILES)	pre-emergence control of harmful weed species (herbicidal effect assessed visually) [1]	post-emergence control of the tested weed species (herbicidal effect assessed visually) [2]	melting point [°C]
c1ccc2c(c1)NNc1nncn1-2 [Compound 6, 4,5-dihydro[[1,2,4]triazolo[3,4-c][1,2,4]benzotriazine]	very good pre-emergence control	very good post-emergence control	–
c1ccc2c(c1)nnc1nncn12 [Compound 3, [1,2,4]triazolo[3,4-c][1,2,4]benzotriazine]	very good pre-emergence control	very good post-emergence control	259 to 261
[O-][n+]1nc2nncn2c2ccc(Br)cc21 [Compound 5, 7-bromo[1,2,4]triazolo[3,4-c][1,2,4]benzotriazine-5-oxide]	very good pre-emergence control	very good post-emergence control	–
